These results are taken from ChEMBL document CHEMBL3400061, “Structure-activity relationships of IKM-159: Diverted synthesis and biological evaluation of a series of C5-oxy analogs” (Bioorg Med Chem Lett, 2015).

What all share (format): functional, organism-based
Assay [1] concerns Mus musculus. Kind of assay: Effect on behavior in ddY mouse at 100 ug, icv.
For assay [2], the system named is Mus musculus. Kind of assay: Induction of loss of body motion in ddY mouse at 100 ug, icv.
The subject of assay [3] is Mus musculus. Kind of assay: Induction of loss of body flaccidness in ddY mouse at 100 ug, icv.
For assay [4], the system named is Mus musculus. Put plainly: Suppression of voluntary movements in ddY mouse at 100 ug, icv.

Molecules are shown by their SMILES. Calls of active or inactive are those of the source. The calls are words filed in the database; no cut-off is given here.

In the case of `C=C[C@@H]1O[C@@]2(CC(=O)O)[C@H](C(=O)O)NC(=O)[C@H]2[C@@H]1O`, the result in assay [1] was inactive.

For `O=C(O)C[C@@]12O[C@H]3CC(=O)O[C@H]3[C@@H]1C(=O)N[C@H]2C(=O)O`, the result in assay [1] was inactive.

`O=C(O)C[C@@]12O[C@H]3C=CCN[C@H]3[C@@H]1C(=O)N[C@H]2C(=O)O`: the outcome in assay [2] and in assay [3] was Active.

For `O=C(O)C[C@@]12O[C@H]3C=CCO[C@H]3[C@@H]1C(=O)N[C@H]2C(=O)O`, the result in assay [4] was Active.

Regarding `O=C(O)C[C@@]12O[C@H]3C=CC(=O)O[C@H]3[C@@H]1C(=O)N[C@H]2C(=O)O`, the result in assay [1] was inactive.
